Test results from US20230340012A1, “NATURAL AND SYNTHETIC COMPOUNDS FOR TREATING CANCER AND OTHER DISEASES” (PACIFIC ARROW LIMITED, priority 2009, published 2023).

Tested on: cancer cells
Assay: MTT cytotoxic assay of esterification products (Cytotoxicity activity)
Format: cell-based, human
Excerpt: The peaks, fractions and compounds are selected according to the activities of times studies and the changes of peaks. Selecting the HPLC fractions for isolation is according to the cytotoxic activity of the reaction product obtained at a specific time. The compounds having strong to weak activities are selected and isolated. Selecting the HPLC fractions for isolation may be according to the cytotoxic activity of times studies and the change of peaks. The anti-cancer activities are the MTT studies of bone (U2OS), lung (H460), bladder (HTB-9), ovary (ES2), colon (HCT116), pancreas (Capan), ovary(OVCAR3), prostate (DU145), skin (SK-Mel-5), mouth (KB), kidney (A498), breast (MCF-7), liver (HepG2), brain (T98G), leukemia (K562), cervix (HeLa).
Esterification of compound (A), (B), (C), (D1), (D2), (E), (F), (G), (H1), (H2), E4A, E4A2Y, (P1), P(2), terpene, isoprene, triterpenes, hydroxylated triterpenes, with acyl halide, wherein the halide comprise chloride, bromide, fluoride and iodide, wherein the acyl halide comprise acyl chloride, wherein acyl chloride comprise tigloyl chloride, angeloyl chloride, acetyl chloride, crotonoyl chloride, 3,3-Dimethylacryloyl chloride, senecioyl chloride, cinnamoyl chloride, pentenoyl chloride, hexanoyl chloride, benzoyl chloride, ethylbutyryl chloride, propionyl chloride, 2-propenoyl chloride, isobutyryl chloride, butyryl chloride, (2E)-2-pentenoyl chloride, 4-Pentenoyl chloride, 5-hexenoyl chloride, heptanoyl chloride, octanoyl chloride, nonanoyl chloride, decanoyl chloride, Lauroyl chloride, myristoyl chloride, oleoyl chloride. The compounds vary in composition when the time or temperature of the reaction is changed. The peaks, fractions and compounds are selected according to the activities of times studies and the changes of peaks. The compounds having strong to weak activities are selected and isolated. The anti-cancer activities (Cytotoxic Assay) are the MTT studies of bone (U2OS), lung (H460), bladder(HTB-9), ovary (ES2), colon (HCT116), pancreas (Capan), ovary(OVCAR3), prostate (DU145), skin (SK-Mel-5), mouth (KB), kidney (A498), breast (MCF-7), liver (HepG2), brain (T98G), leukemia (K562), cervix (HeLa). The active esterification products are purified with HPLC. The reaction product of mixtures and individual compounds are tested with MTT Cytotoxic Assay. Details of method are in Experiment 3 of the present application. A second esterification of compound can be selected from the above experiment results to produce new active compounds. A partial esterification compound is selected from the above experiments to perform a second or repeated with a third esterification with different acyl chloride in order to produce new active compounds with the experiments in the present application.
Method: 40 mg of triterpene core (fraction IV) was dissolved in 1 ml pyridine in a 50 ml tube. Reaction is started by adding 0.2 ml of acyl chloride (Tigloyl chloride, angeloyl chloride, Acetyl chloride, Crotonoyl chloride, 3,3-Dimethylacryloyl chloride(senecioyl chloride), Cinnamoyl chloride, Pentenoyl chloride, Hexanoyl chloride, benzoyl chloride or Ethylbutyryl chloride). The mixture is stirred for 5 sec, 1 min, 2 min, 5 min, 10 min, 30 min, 1 hr, 2 hr, 18 hr, 2 days or 3 days at 0° C., 25° C. or 75° C. temperature. At the end of reaction, 5 ml of 2N HCl or 1 M NaHCO3 is added to the reaction mixture. The solution is then extracted 3 times with 10 ml of ethyl acetate which is then evaporated under vacuum and at 45C and lyophilization. The reaction product is dissolved in 80% acetonitrile - 0.005% Trifluoroacetic acid or DMSO; and was separated with HPLC. Selecting the HPLC fractions for isolation is according to the cytotoxic activity of the reaction product obtained at a specific reaction time. The active esterification products are purified with HPLC. The reaction product of mixtures and individual compounds are tested with MTT cytotoxic assay. Structures are determined with NMR. […]

[1] = esterification products isolated with HPLC, graded strong / moderate / weak
[2] = E4A esterified with Acetyl chloride (Acy = Acetyl), compounds isolated with HPLC
[3] = MTT cytotoxic assay, isolated esterification products of E4A
[4] = E4A esterified with Cinnamoyl chloride (Cin = Cinnamoyl), compounds isolated with HPLC
[5] = E4A esterified with Crotonoyl chloride (Cro = Crotonoyl), compounds isolated with HPLC

Compound: CC1(C)CC2C3=CCC4C5(C)CCC(OC(=O)c6ccccc6)C(C)(COC(=O)c6ccccc6)C5CCC4(C)C3(C)CC(O)C2(COC(=O)c2ccccc2)C(OC(=O)c2ccccc2)C1OC(=O)c1ccccc1 (stereo not drawn) [Compound K15]
- Cytotoxicity activity (E4A esterified with 2-propenoyl chloride (Ppe = Propenoyl), compounds isolated with HPLC): weak
- Cytotoxicity activity (E4A esterified with Propionyl chloride (Ppi = Propionyl), compounds isolated with HPLC): weak
- Cytotoxicity activity (E4A esterified with benzoyl chloride (Ben = benzoyl), compounds isolated with HPLC): weak
- Cytotoxicity activity (esterification products of core compound E4A with (2E)-2-pentenoyl chloride (2pe = 2-pentenoyl)): weak
- Cytotoxicity activity (esterification products of core compound E4A with Butyryl chloride (But = Butyryl)): weak
- Cytotoxicity activity (esterification products of core compound E4A with Decanoyl chloride (Dec = Decanoyl)): weak
- Cytotoxicity activity (esterification products of core compound E4A with Isobutyryl chloride (Iso = Isobutyryl)): weak
- Cytotoxicity activity (esterification products of core compound E4A with Myristoyl chloride (Myr = Myristoyl)): weak
- Cytotoxicity activity (esterification products of core compound E4A with Octanoyl chloride (Oct = Octanoyl)): weak

Compound: CC=CC(=O)OC1CCC2(C)C(CCC3(C)C2CC=C2C4CC(C)(C)C(O)C(O)C4(COC(=O)C(C)=CC)C(O)CC23C)C1(C)COC(=O)C(C)=CC (stereo not drawn) [Tig—R—Cro—4]
- Cytotoxicity activity [1]: moderate

Compound: CC=C(C)C(=O)OCC1(C)C(O)CCC2(C)C1CCC1(C)C2CC=C2C3CC(C)(C)C(O)C(OC(C)=O)C3(COC(C)=O)C(O)CC21C (stereo not drawn) [Tig—Acy—3]
- Cytotoxicity activity [1]: moderate

Compound: CC(=O)OCC12C(O)CC3(C)C(=CCC4C5(C)CCC(OC(C)=O)C(C)(CO)C5CCC43C)C1CC(C)(C)C(O)C2O (stereo not drawn) [Compound H27]
- Cytotoxicity activity [2]: moderate

Compound: CC=C(C)C(=O)OCC1(C)C(O)CCC2(C)C1CCC1(C)C2CC=C2C3CC(C)(C)C(OC(=O)C(C)=CC)C(OC(=O)C(C)=CC)C3(COC(=O)C(C)=CC)C(OC(=O)C(C)=CC)CC21C (stereo not drawn) [Compound A16]
- Cytotoxicity activity [3]: weak

Compound: CC1(C)CC2C3=CCC4C5(C)CCC(O)C(C)(COC(=O)C=Cc6ccccc6)C5CCC4(C)C3(C)CC(OC(=O)C=Cc3ccccc3)C2(CO)C(O)C1O (stereo not drawn) [Compound J32]
- Cytotoxicity activity [4]: moderate

Compound: CC(C)=CC(=O)OC1C(OC(=O)C=C(C)C)C2(CO)C(OC(=O)C=C(C)C)CC3(C)C(=CCC4C5(C)CCC(O)C(C)(CO)C5CCC43C)C2CC1(C)C (stereo not drawn) [Compound B22]
- Cytotoxicity activity [3]: moderate

Compound: CC=CC(=O)OCC1(C)C(O)CCC2(C)C1CCC1(C)C2CC=C2C3CC(C)(C)C(OC(=O)C=CC)C(O)C3(CO)C(O)CC21C (stereo not drawn) [Compound I29]
- Cytotoxicity activity [5]: moderate

Compound: CC=CC(=O)OC1C(OC(=O)C=CC)C2(CO)C(O)CC3(C)C(=CCC4C5(C)CCC(OC(=O)C=CC)C(C)(CO)C5CCC43C)C2CC1(C)C (stereo not drawn) [Compound I23]
- Cytotoxicity activity [5]: moderate

Compound: CCC(CC)C(=O)OCC1(C)C(O)CCC2(C)C1CCC1(C)C2CC=C2C3CC(C)(C)C(O)C(OC(=O)C(CC)CC)C3(COC(=O)C(CC)CC)C(O)CC21C (stereo not drawn) [Compound E5]
- Cytotoxicity activity [3]: moderate

Compound: CCC(CC)C(=O)OCC1(C)C(O)CCC2(C)C1CCC1(C)C2CC=C2C3CC(C)(C)C(O)C(OC(=O)C(CC)CC)C3(CO)C(O)CC21C (stereo not drawn) [Compound E30]
- Cytotoxicity activity [3]: moderate

Compound: C=CCCC(=O)OCC1(C)C(O)CCC2(C)C1CCC1(C)C2CC=C2C3CC(C)(C)C(OC(=O)CCC=C)C(O)C3(COC(=O)CCC=C)C(O)CC21C (stereo not drawn) [Compound C4]
- Cytotoxicity activity [3]: moderate

Compound: C=CCCC(=O)OCC1(C)C(OC(=O)CCC=C)CCC2(C)C1CCC1(C)C2CC=C2C3CC(C)(C)C(O)C(OC(=O)CCC=C)C3(COC(=O)CCC=C)C(OC(=O)CCC=C)CC21C (stereo not drawn) [Compound C18]
- Cytotoxicity activity [3]: weak

Compound: CC=C(C)C(=O)OCC12C(OC(=O)C(C)=CC)CC3(C)C(=CCC4C5(C)CCC(O)C(C)(CO)C5CCC43C)C1CC(C)(C)C(O)C2O (stereo not drawn) [Compound A28]
- Cytotoxicity activity [3]: moderate

Compound: CC=CC(=O)OCC1(C)C(OC(=O)C=CC)CCC2(C)C1CCC1(C)C2CC=C2C3CC(C)(C)C(O)C(O)C3(COC(=O)C=CC)C(OC(=O)C=CC)CC21C (stereo not drawn) [Compound I10]
- Cytotoxicity activity [5]: weak

Compound: CC1(C)CC2C3=CCC4C5(C)CCC(O)C(C)(CO)C5CCC4(C)C3(C)CC(O)C2(COC(=O)C=Cc2ccccc2)C(O)C1O (stereo not drawn) [Compound J2]
- Cytotoxicity activity [4]: moderate

Compound: CC=CC(=O)OCC1(C)C(OC(=O)C=CC)CCC2(C)C1CCC1(C)C2CC=C2C3CC(C)(C)C(O)C(OC(=O)C=CC)C3(COC(=O)C=CC)C(O)CC21C (stereo not drawn) [Compound I9]
- Cytotoxicity activity [5]: weak

Compound: CC=CC(=O)OC1CCC2(C)C(CCC3(C)C2CC=C2C4CC(C)(C)C(O)C(OC(=O)C=CC)C4(COC(=O)C(C)=CC)C(O)CC23C)C1(C)COC(=O)C(C)=CC (stereo not drawn) [Tig—R—Cro—6]
- Cytotoxicity activity [1]: weak

Compound: CCC(CC)C(=O)OCC1(C)C(OC(=O)C(CC)CC)CCC2(C)C1CCC1(C)C2CC=C2C3CC(C)(C)C(O)C(OC(=O)C(CC)CC)C3(COC(=O)C(CC)CC)C(O)CC21C (stereo not drawn) [Compound E14]
- Cytotoxicity activity [3]: weak

Compound: CC1(C)CC2C3=CCC4C5(C)CCC(O)C(C)(COC(=O)C=Cc6ccccc6)C5CCC4(C)C3(C)CC(OC(=O)C=Cc3ccccc3)C2(COC(=O)C=Cc2ccccc2)C(O)C1O (stereo not drawn) [Compound J7]
- Cytotoxicity activity [4]: moderate

Compound: CC=C(C)C(=O)OCC1(C)C(OC(=O)C(CC)CC)CCC2(C)C1CCC1(C)C2CC=C2C3CC(C)(C)C(O)C(OC(=O)C(CC)CC)C3(COC(=O)C(C)=CC)C(O)CC21C (stereo not drawn) [Tig—R—Eth—6]
- Cytotoxicity activity [1]: weak

Compound: CC1(C)CC2C3=CCC4C5(C)CCC(OC(=O)C=Cc6ccccc6)C(C)(COC(=O)C=Cc6ccccc6)C5CCC4(C)C3(C)CC(OC(=O)C=Cc3ccccc3)C2(COC(=O)C=Cc2ccccc2)C(O)C1OC(=O)C=Cc1ccccc1 (stereo not drawn) [Compound J17]
- Cytotoxicity activity [4]: weak

Compound: CCC(CC)C(=O)OCC1(C)C(O)CCC2(C)C1CCC1(C)C2CC=C2C3CC(C)(C)C(O)C(O)C3(COC(=O)C(CC)CC)C(OC(=O)C(CC)CC)CC21C (stereo not drawn) [Compound E7]
- Cytotoxicity activity [3]: moderate

Compound: CCC(CC)C(=O)OCC12C(O)CC3(C)C(=CCC4C5(C)CCC(O)C(C)(CO)C5CCC43C)C1CC(C)(C)C(O)C2O (stereo not drawn) [Compound E2]
- Cytotoxicity activity [3]: moderate

Compound: CC(C)=CC(=O)OCC1(C)C(OC(=O)C=C(C)C)CCC2(C)C1CCC1(C)C2CC=C2C3CC(C)(C)C(O)C(OC(=O)C=C(C)C)C3(COC(=O)C=C(C)C)C(OC(=O)C=C(C)C)CC21C (stereo not drawn) [Compound B18]
- Cytotoxicity activity [3]: weak

Compound: CC=C(C)C(=O)OCC1(C)C(O)CCC2(C)C1CCC1(C)C2CC=C2C3CC(C)(C)C(O)C(OC(=O)C(C)=CC)C3(CO)C(O)CC21C (stereo not drawn) [Tig—Ang—6]
- Cytotoxicity activity [1]: moderate

Compound: C=CCCC(=O)OC1C(O)C2(COC(=O)C(C)=CC)C(O)CC3(C)C(=CCC4C5(C)CCC(O)C(C)(COC(=O)C(C)=CC)C5CCC43C)C2CC1(C)C (stereo not drawn) [Tig—R—Pen—2]
- Cytotoxicity activity [1]: moderate

Compound: CC(C)=CC(=O)OCC1(C)C(O)CCC2(C)C1CCC1(C)C2CC=C2C3CC(C)(C)C(OC(=O)C=C(C)C)C(OC(=O)C=C(C)C)C3(CO)C(O)CC21C (stereo not drawn) [Compound B21]
- Cytotoxicity activity [3]: moderate

Compound: CC(=O)OCC1(C)C(O)CCC2(C)C1CCC1(C)C2CC=C2C3CC(C)(C)C(OC(C)=O)C(O)C3(CO)C(O)CC21C (stereo not drawn) [Compound H29]
- Cytotoxicity activity [2]: moderate

Compound: CC=C(C)C(=O)OCC1(C)C(OC(=O)C(C)=CC)CCC2(C)C1CCC1(C)C2CC=C2C3CC(C)(C)C(O)C(OC(=O)C(C)=CC)C3(COC(=O)C(C)=CC)C(O)CC21C (stereo not drawn) [Tig—R—Ang—6]
- Cytotoxicity activity [1]: weak

Compound: CC=C(C)C(=O)OCC1(C)C(O)CCC2(C)C1CCC1(C)C2CC=C2C3CC(C)(C)C(OC(C)=O)C(O)C3(CO)C(O)CC21C (stereo not drawn) [Tig—Acy—5]
- Cytotoxicity activity [1]: moderate
